{"source": "patent US10758534B2", "about": "(Vertex Pharmaceuticals Incorporated, priority 2014, dated 2020)", "data": [{"biological_target": "T1, F508del (Homo sapiens, UniProt P13569, DEL508-508)", "T1 construct": "expressed in transfected cells", "T1 sequence (P13569 with tags, fused parts or gaps DEL508-508)": "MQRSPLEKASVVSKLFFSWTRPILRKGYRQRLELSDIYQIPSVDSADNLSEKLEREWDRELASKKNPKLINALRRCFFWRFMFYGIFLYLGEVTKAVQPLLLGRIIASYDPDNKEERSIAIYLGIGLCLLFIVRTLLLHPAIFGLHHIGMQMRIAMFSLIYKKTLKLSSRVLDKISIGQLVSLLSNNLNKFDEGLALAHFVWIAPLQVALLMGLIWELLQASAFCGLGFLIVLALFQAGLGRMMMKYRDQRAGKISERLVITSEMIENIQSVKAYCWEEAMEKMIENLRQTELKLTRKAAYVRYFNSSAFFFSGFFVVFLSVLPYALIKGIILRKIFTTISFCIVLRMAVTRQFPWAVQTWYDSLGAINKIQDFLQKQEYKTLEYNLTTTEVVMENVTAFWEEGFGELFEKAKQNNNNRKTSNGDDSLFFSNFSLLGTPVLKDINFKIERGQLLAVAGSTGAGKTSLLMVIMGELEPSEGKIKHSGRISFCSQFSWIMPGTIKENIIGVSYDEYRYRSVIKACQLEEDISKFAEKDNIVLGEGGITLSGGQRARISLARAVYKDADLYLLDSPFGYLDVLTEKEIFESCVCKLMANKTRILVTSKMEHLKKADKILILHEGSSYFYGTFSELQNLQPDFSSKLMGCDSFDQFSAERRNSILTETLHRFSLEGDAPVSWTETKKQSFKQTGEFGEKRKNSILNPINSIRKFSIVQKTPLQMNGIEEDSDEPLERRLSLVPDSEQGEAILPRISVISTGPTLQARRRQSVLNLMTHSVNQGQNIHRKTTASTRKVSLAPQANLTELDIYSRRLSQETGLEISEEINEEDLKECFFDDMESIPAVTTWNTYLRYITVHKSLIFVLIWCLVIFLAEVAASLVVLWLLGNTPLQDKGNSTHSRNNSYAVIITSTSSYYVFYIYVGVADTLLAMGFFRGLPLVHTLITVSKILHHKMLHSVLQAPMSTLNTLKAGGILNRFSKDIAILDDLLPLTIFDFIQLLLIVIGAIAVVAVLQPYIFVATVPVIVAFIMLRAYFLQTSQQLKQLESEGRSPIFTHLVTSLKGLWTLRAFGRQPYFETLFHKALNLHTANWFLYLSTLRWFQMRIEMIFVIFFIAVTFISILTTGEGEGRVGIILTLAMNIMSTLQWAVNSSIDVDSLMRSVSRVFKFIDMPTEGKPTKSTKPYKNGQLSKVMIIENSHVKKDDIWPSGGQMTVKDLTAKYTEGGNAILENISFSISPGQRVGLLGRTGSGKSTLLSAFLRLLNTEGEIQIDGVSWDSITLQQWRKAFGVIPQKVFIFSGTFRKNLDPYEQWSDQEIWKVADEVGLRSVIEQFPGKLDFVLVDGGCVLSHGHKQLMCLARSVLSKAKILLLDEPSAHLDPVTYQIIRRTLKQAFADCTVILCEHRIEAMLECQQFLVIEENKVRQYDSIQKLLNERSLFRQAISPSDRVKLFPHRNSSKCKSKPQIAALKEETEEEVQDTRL", "assay": "Protocol 1: membrane potential optical assay (FLIPR III, voltage sensing dye), identification of potentiator compounds", "assay_type": "cell-based", "conditions": "Table 3, compounds of Table 1", "summary_of_the_method": "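Mouse NIH 3T3 fibroblasts stably expressing F508del, temperature-corrected at 27 °C for 24 h, pretreated with compound, then loaded with voltage-sensing redistribution dye. Forskolin was added in a single step with a chloride gradient (chloride-free gluconate bath; Bath Solution #1 HEPES pH 7.4). Membrane-potential fluorescence read on FLIPR III.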", "values": [{"smiles": "CC(C)COc1cc(F)cc(-c2ccc(C(=O)NS(=O)(=O)c3cccc(N)n3)c(OC3CCCC3(C)C)n2)c1", "note": "(stereo not shown) [Compound 1629, N-[(6-amino-2-pyridyl)sulfonyl]-2-(2,2-dimethylcyclopentoxy)-6-(3-fluoro-5-isobutoxy-phenyl)pyridine-3-carboxamide]", "EC30": "+++ (“+++” means <3 uM)"}, {"smiles": "CCOc1cccc2c1CN(Cc1c(C)cc(C)cc1C)C2(C)C(=O)NS(=O)(=O)c1cncs1", "note": "(stereo not shown) [Compound 1606, 4-ethoxy-1-methyl-N-thiazol-5-ylsulfonyl-2-[(2,4,6-trimethylphenyl)methyl]isoindoline-1-carboxamide]", "EC30": "+++ (“+++” means <3 uM)"}, {"smiles": "CC1CC(C)CN(c2cccc(S(=O)(=O)NC(=O)c3cccnc3N3CC(C)CC3(C)C)n2)C1", "note": "(stereo not shown) [Compound 1749, N—[[6-(3,5-dimethyl-1-piperidyl)-2-pyridyl]sulfonyl]-2-(2,2,4-trimethylpyrrolidin-1-yl)pyridine-3-carboxamide]", "EC30": "+++ (“+++” means <3 uM)"}, {"smiles": "Cc1cc(C)c(Oc2nc(-c3ccccc3Cl)ccc2C(=O)NS(=O)(=O)c2cccc(N)n2)c(C)c1", "note": "[Compound 1221, N-[(6-amino-2-pyridyl)sulfonyl]-6-(2-chlorophenyl)-2-(2,4,6-trimethylphenoxy)pyridine-3-carboxamide]", "EC30": "+++ (“+++” means <3 uM)"}, {"smiles": "CC1CCN(c2nc(-c3ccc(C(C)C)cc3)ccc2C(=O)NS(=O)(=O)c2cccc(N)n2)CC1", "note": "[Compound 847, N-[(6-amino-2-pyridyl)sulfonyl]-6-(4-isopropylphenyl)-2-(4-methyl-1-piperidyl)pyridine-3-carboxamide]", "EC30": "+++ (“+++” means <3 uM)"}, {"smiles": "Cc1cc(C)c(CN2Cc3ccccc3C2(C)C(=O)NS(=O)(=O)c2ccc[nH]c2=O)c(C)c1", "note": "(stereo not shown) [Compound 1237, 1-methyl-N-[(2-oxo-1H-pyridin-3-yl)sulfonyl]-2-[(2,4,6-trimethylphenyl)methyl]isoindoline-1-carboxamide]", "EC30": "++ (“++” means between 3 uM and 10 uM)"}, {"smiles": "COc1ncc(-c2ccc(C(=O)NS(=O)(=O)c3cccnc3OC)c(-c3ccc(C)cc3)n2)cc1C", "note": "[Compound 861, 6-(6-methoxy-5-methyl-3-pyridyl)-N-[(2-methoxy-3-pyridyl)sulfonyl]-2-(p-tolyl)pyridine-3-carboxamide]", "EC30": "++ (“++” means between 3 uM and 10 uM)"}, {"smiles": "CC(C)Oc1ccc(-c2ccc(C(=O)NS(=O)(=O)c3cccnc3N)c(N3[C@H](C)CC[C@@H]3C)n2)cn1", "note": "[Compound 1316, N-[(2-amino-3-pyridyl)sulfonyl]-2-[(2S,5R)-2,5-dimethylpyrrolidin-1-yl]-6-(6-isopropoxy-3-pyridyl)pyridine-3-carboxamide]", "EC30": "+++ (“+++” means <3 uM)"}, {"smiles": "CCOC1CCCN(c2nc(-c3cc(F)cc(OCC(C)C)c3)ccc2C(=O)NS(=O)(=O)c2ccn[nH]2)C1", "note": "(stereo not shown) [Compound 843, 2-(3-ethoxy-1-piperidyl)-6-(3-fluoro-5-isobutoxy-phenyl)-N-(1H-pyrazol-5-ylsulfonyl)pyridine-3-carboxamide]", "EC30": "++ (“++” means between 3 uM and 10 uM)"}, {"smiles": "Cc1cc(C)c(Oc2nc(OC(C)C)ccc2C(=O)NS(=O)(=O)c2cccc(N)n2)c(C)c1", "note": "[Compound 968, N-[(6-amino-2-pyridyl)sulfonyl]-6-isopropoxy-2-(2,4,6-trimethylphenoxy)pyridine-3-carboxamide]", "EC30": "+++ (“+++” means <3 uM)"}, {"smiles": "Cc1cc(C)c(Oc2nc(-c3cnn(CC(C)C)c3)ccc2C(=O)NS(=O)(=O)c2nccnc2N)c(C)c1", "note": "[Compound 1103, N-(3-aminopyrazin-2-yl)sulfonyl-6-(1-isobutylpyrazol-4-yl)-2-(2,4,6-trimethylphenoxy)pyridine-3-carboxamide]", "EC30": "+++ (“+++” means <3 uM)"}, {"smiles": "Cc1cc(C)c(Oc2nc(C3=CC4CCC3(C)C4(C)C)ccc2C(=O)NS(=O)(=O)c2cccc(N)n2)c(C)c1", "note": "(stereo not shown) [Compound 1410, N-[(6-amino-2-pyridyl)sulfonyl]-6-(4,7,7-trimethyl-3-bicyclo[2.2.1]hept-2-enyl)-2-(2,4,6-trimethylphenoxy)pyridine-3-carboxamide]", "EC30": "+++ (“+++” means <3 uM)"}, {"smiles": "CC1CN(c2ncccc2C(=O)NS(=O)(=O)c2cccc(Nc3cccc(Cl)c3Cl)n2)C(C)(C)C1", "note": "(stereo not shown) [Compound 1906, N—[[6-(2,3-dichloroanilino)-2-pyridyl]sulfonyl]-2-(2,2,4-trimethylpyrrolidin-1-yl)pyridine-3-carboxamide]", "EC30": "+++ (“+++” means <3 uM)"}, {"smiles": "CC(C)Oc1ccc(-c2ccc(C(=O)NS(=O)(=O)c3cccc(N)n3)c(N(C)C3CCCC3)n2)cn1", "note": "[Compound 1025, N-[(6-amino-2-pyridyl)sulfonyl]-2-[cyclopentyl(methyl)amino]-6-(6-isopropoxy-3-pyridyl)pyridine-3-carboxamide]", "EC30": "+++ (“+++” means <3 uM)"}, {"smiles": "CC(C)COc1cc(F)cc(-c2ccc(C(=O)NS(=O)(=O)c3cccc(N)n3)c(OCC3CCCCO3)n2)c1", "note": "(stereo not shown) [Compound 1570, N-[(6-amino-2-pyridyl)sulfonyl]-6-(3-fluoro-5-isobutoxy-phenyl)-2-(tetrahydropyran-2-ylmethoxy)pyridine-3-carboxamide]", "EC30": "+++ (“+++” means <3 uM)"}, {"smiles": "CC(C)=Cc1cc(C(=O)NS(=O)(=O)c2cccc(N)n2)c(N2CC(C)CC2(C)C)nc1C(C)(C)C", "note": "(stereo not shown) [Compound 1561, N-[(6-amino-2-pyridyl)sulfonyl]-6-tert-butyl-5-(2-methylprop-1-enyl)-2-(2,2,4-trimethylpyrrolidin-1-yl)pyridine-3-carboxamide]", "EC30": "+++ (“+++” means <3 uM)"}, {"smiles": "Cc1cc(C)c(Oc2nc(C(C)(C)C)ccc2C(=O)NS(=O)(=O)c2cccc(NCCN)n2)c(C)c1", "note": "[Compound 1054, N-[[6-(2-aminoethylamino)-2-pyridyl]sulfonyl]-6-tert-butyl-2-(2,4,6-trimethylphenoxy)pyridine-3-carboxamide]", "EC30": "+++ (“+++” means <3 uM)"}, {"smiles": "Cc1cc(C#N)cc(C)c1Oc1nc(C(C)(C)C)ccc1C(=O)NS(=O)(=O)c1cccc(N)n1", "note": "[Compound 1089, N-[(6-amino-2-pyridyl)sulfonyl]-6-tert-butyl-2-(4-cyano-2,6-dimethyl-phenoxy)pyridine-3-carboxamide]", "EC30": "+++ (“+++” means <3 uM)"}, {"smiles": "COc1ncc(Cl)cc1-c1ccc(C(=O)NS(=O)(=O)c2cccc(N)n2)c(Oc2c(C)cc(C)cc2C)n1", "note": "[Compound 993, N-[(6-amino-2-pyridyl)sulfonyl]-6-(5-chloro-2-methoxy-3-pyridyl)-2-(2,4,6-trimethylphenoxy)pyridine-3-carboxamide]", "EC30": "+++ (“+++” means <3 uM)"}, {"smiles": "COc1ccc(-c2cc(C(=O)NS(=O)(=O)c3cccc(N)c3)n(C(C)c3ccccc3)n2)cc1", "note": "(stereo not shown) [Compound 1024, N-(3-aminophenyl)sulfonyl-5-(4-methoxyphenyl)-2-(1-phenylethyl)pyrazole-3-carboxamide]", "EC30": "++ (“++” means between 3 uM and 10 uM)"}, {"smiles": "Cc1nccc(-c2cccc(S(=O)(=O)NC(=O)c3cc(C(C)(C)C)nn3Cc3c(C)cccc3C)c2)n1", "note": "[Compound 1496, 5-tert-butyl-2-[(2,6-dimethylphenyl)methyl]-N-[3-(2-methylpyrimidin-4-yl)phenyl]sulfonyl-pyrazole-3-carboxamide]", "EC30": "+++ (“+++” means <3 uM)"}, {"smiles": "Cc1cc(C)c(Oc2nc(-c3cnc(N4CCCC4)nc3)ccc2C(=O)NS(=O)(=O)c2cccc(N)n2)c(C)c1", "note": "[Compound 1275, N-[(6-amino-2-pyridyl)sulfonyl]-6-(2-pyrrolidin-1-ylpyrimidin-5-yl)-2-(2,4,6-trimethylphenoxy)pyridine-3-carboxamide]", "EC30": "+++ (“+++” means <3 uM)"}]}]}
